For orientation: IC50 means the midpoint of a concentration-inhibition curve.

Experiment [1] concerns cell culture cells, transfected with MNK2 (MNK2a or MNK2b) or MNK1. The conditions noted are these: addition to cell culture cells transfected with MNK2 (MNK2a or MNK2b) or MNK1; cited from earlier work.
Experiment [2] concerns the target MNK2a (Homo sapiens (Human), UniProt Q9HBH9). Nature of the experiment: MNK2a in vitro kinase assay (Assay 2), ADP-Glo. Format: biochemical. The note with it: read-out: MNK2 IC50. The method, then:
The white, 384-well OptiPlate F plates were purchased from PerkinElmer. The ADP-Glo Kinase Assay (including ultra pure ATP) was purchased from Promega (V9103). Activated MNK2a was obtained as described in WO2011/104340. […] All other materials were of highest grade commercially available. Compounds are tested in either serial dilutions or single dose concentrations. The compound stock solutions are 10 mM in 100% DMSO The serial compound dilutions are prepared in 100% DMSO followed by 1:27.3 intermediate dilution in assay buffer. The final DMSO concentration in assay will be <3%.
In the 384-well plates 3 μl of test compound from the intermediate dilution is mixed with 4 μl of the activated MNK2 enzyme (final concentration of 10 nM) and 4 μl of the peptide (final concentration of 25 μM)/ultra pure ATP (final concentration of 20 μM), all dissolved in assay buffer. This step is followed by an incubation time of 90 min, then 10 μl of ADP Glo reagent are added, followed by 40 min of incubation. Then 20 μl of kinase detection reagent are admixed. The plates are sealed and after an incubation period of 30 min, the luminescence signal is measured in an Envision reader to determine the amount of produced ADP. All incubation steps are performed at room temperature. […]
IC50 values based on dose response curves are calculated with the AssayExplorer software.
Background: ADP-Glo first removes unused ATP, then detects ADP through luciferase.

For experiment [3], the target named is MNK1a (Homo sapiens (Human), UniProt Q9BUB5). In words: MNK1 in vitro kinase assay (Assay 3), Z'-LYTE. Format: biochemical. The note with it: compound concentration of 1 μM. The text has this: C. MNK1 In Vitro Kinase Assay (Assay 3)
MNK1 Data can be obtained from the MNK1 Z′-LYTE® assay. The MNK1 Z′-LYTE® screening protocol and assay conditions are also described on www.invitrogen.com.
The assay is described as follows:
The Z′-LYTE® biochemical assay employs a fluorescence-based, coupled-enzyme format and is based on the differential sensitivity of phosphorylated and non-phosphorylated peptides to proteolytic cleavage. The peptide substrate is labeled with two fluorophores—one at each end—that make up a FRET pair.
In the primary reaction, the kinase transfers the gamma-phosphate of ATP to a single tyrosine, serine or threonine residue in a synthetic FRET-peptide. In the secondary reaction, a site-specific protease recognizes and cleaves non-phosphorylated FRET-peptides. Phosphorylation of FRET-peptides suppresses cleavage by the Development Reagent. […] A ratiometric method, which calculates the ratio (the Emission Ratio) of donor emission to acceptor emission after excitation of the donor fluorophore at 400 nm, is used to quantitate reaction progress, as shown in the equation below.
ASSAY SETUP: The inhibition of kinase activity of MNK1a was assessed using pre-activated GST-MNK1a. […]
9. Read on fluorescence plate reader and analyze the data […]

MNK2a, sequence (Q9HBH9 whole entry): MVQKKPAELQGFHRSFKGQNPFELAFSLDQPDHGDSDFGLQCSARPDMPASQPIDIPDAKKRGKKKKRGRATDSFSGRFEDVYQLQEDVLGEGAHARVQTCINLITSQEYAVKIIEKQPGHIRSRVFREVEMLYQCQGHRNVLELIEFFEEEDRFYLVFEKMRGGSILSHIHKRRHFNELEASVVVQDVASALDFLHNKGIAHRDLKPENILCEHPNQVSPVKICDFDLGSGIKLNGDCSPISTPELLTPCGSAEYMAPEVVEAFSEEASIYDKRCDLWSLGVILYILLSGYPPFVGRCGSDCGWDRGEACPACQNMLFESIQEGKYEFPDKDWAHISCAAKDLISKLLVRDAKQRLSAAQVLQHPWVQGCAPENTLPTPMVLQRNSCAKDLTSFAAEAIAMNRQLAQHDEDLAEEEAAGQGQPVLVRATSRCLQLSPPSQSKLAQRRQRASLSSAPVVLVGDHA
MNK1a, sequence (Q9BUB5 other isoform, or with tags, fused parts or gaps): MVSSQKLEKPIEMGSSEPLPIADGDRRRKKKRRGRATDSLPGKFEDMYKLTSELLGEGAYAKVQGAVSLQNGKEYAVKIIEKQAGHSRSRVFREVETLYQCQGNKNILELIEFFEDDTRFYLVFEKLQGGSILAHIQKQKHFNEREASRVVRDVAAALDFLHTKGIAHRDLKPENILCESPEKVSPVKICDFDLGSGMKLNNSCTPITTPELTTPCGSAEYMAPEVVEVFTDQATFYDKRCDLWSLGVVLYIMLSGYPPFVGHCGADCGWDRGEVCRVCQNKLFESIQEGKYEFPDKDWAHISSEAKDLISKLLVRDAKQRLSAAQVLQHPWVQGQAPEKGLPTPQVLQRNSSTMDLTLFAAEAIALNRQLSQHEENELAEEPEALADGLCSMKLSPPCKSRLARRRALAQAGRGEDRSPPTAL

For `Nc1ncnc2n[nH]c(Nc3ccc(F)cc3)c12` [CGP57380], the “reduction of phosphorylated eIF4E” value in experiment [1] is on record as “strong reduction of phosphorylated eIF4E”.

Turning to `C[C@@H](Oc1cc(F)ccc1Nc1ncnc2cc(N=S3(=O)CCC3)cc(F)c12)C(=O)NCCC(F)(F)F` [Example 4.108], the half-inhibitory concentration (IC50) in experiment [2] stood at 2 nM.

Consider `C[C@H](NC(=O)[C@@H](C)Oc1cc(F)ccc1Nc1ncnc2cc(N=S3(=O)CCC3)cc(F)c12)C(F)(F)F` [Example 4.136], for which the “MNK1 % INH” value in experiment [3] is 93%.

The record behind these values is patent US9708274B2, “Sulfoximine substituted quinazolines for pharmaceutical compositions” (EVOTEC INTERNATIONAL GMBH, priority 2013, dated 2017).
